We go through 23 compounds from publication PMC9481533, “Structure-based discovery of small molecules that disaggregate Alzheimer’s disease tissue derived tau fibrils in vitro” (Nature Communications, 2022).

The assay deals with crude AD brain extracts (tau seeds) in HEK293T tau biosensor cells (Homo sapiens, UniProt P10636). The assay is described as follows: Tau biosensor cell seeding assay, screen with crude AD brain extracts. To be noted: 10 μM inhibitor on cells, seeds pre-incubated 16–18 h at 4 °C, individual replicates (n=3), DMSO control 10734.9/12808.5/11145.3. It is filed as cell-based. An excerpt:
From the in silico screen, compounds were ranked and 46 were selected for further experimental validation based on the total binding energy of the ligand/fibril complex. The experimental assessment consisted of direct measures of fibril disassembly (Fig. 2d, e and Supplementary Table 3) and assessment of the seeding capability of the products of disassembled AD tau fibrils in a biosensor cell assay. Disaggregating molecules that produce active seeds are undesirable for therapy and are excluded from further study. HEK293T cells expressing CFP- or YFP-fused tau are transduced with exogenous AD tau fibrils. Externally applied AD-tau fibrils then induce the aggregation of the endogenous fluorescent tau, resulting in the formation of FRET-positive intracellular aggregates, visible as bright puncta by fluorescence microscopy (Fig. 2f). Automated image analysis of visible puncta provides an objective quantification of seeded aggregation. […] Although biosensors may be limited in reporting structural characteristics of fibril progeny, they offer exquisitely sensitive measures of tau seeding activity—the ability for fibrils to recruit monomeric protein into fibrillar form, which is thought to be the mechanism for tau spreading in AD.
Human autopsy samples were obtained by the Mayo Clinic Brain Bank and UCLA Pathology Department according to HHS regulations from patients consenting to autopsy. Samples were provided to the researchers of this study as anonymized tissues. For purification of paired helical filaments (PHFs) and straight filaments (SFs) from AD brain tissue, extractions were performed according to the previously published protocol without any modifications. […] For biosensor seeding assays with crude AD brain extracts, fresh-frozen tissue from neuropathologically confirmed AD cases was thawed and cut into a 0.2–0.3 g sections. Tissue was manually homogenized in a 15 ml disposable tube in 1 ml of 50 mM Tris, pH 7.4 with 150 mM NaCl, and then aliquoted to PCR tubes and sonicated in a cuphorn bath for 120 min under 30% power at 4 °C in a recirculating ice water bath, according to reference.
HEK293T cell lines stably expressing tau-K18 P301S-eYFP were obtained from Marc Diamond[25] and used without further characterization or authentication. […] Inhibitors were dissolved in DMSO. […] After twenty minutes, 10 µl of fibrils were added to 90 µl of tau biosensor cells. The number of seeded aggregates was determined by imaging the entire well of a 96-well plate in triplicate using a Celigo Image Cytometer (Nexcelom) in the YFP channel. The number of aggregates in a given image was determined using an ImageJ 2.3.0[50] script, which subtracts the background fluorescence from unseeded cells, and then counts the number of aggregates as peaks with fluorescence above the background using the built-in Particle Analyzer. The number of aggregates was normalized to the confluence of each well, and dose-response plots were generated by calculating the average and standard deviations from triplicate measurements.

Several values for one entry are separate records, joined by “and”; a condition that tells them apart may be missing. Equal values may be shown once.

crude AD brain extracts (tau seeds) in HEK293T tau biosensor cells, sequence (P10636 623-695 limits assumed): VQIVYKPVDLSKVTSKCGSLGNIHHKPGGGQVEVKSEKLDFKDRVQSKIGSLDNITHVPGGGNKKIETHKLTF

Regarding `Oc1c(Cl)cc(Cl)c2cccnc12` [5,7-dichloro-8-quinolinol AKA Chloroxine, 5,7-dichloro-8-quinolinol], the “Number of seeded aggregates in tau biosensor cells (normalized to confluence), Fig. 2e” value (“Number … (normalized to confluence), Fig. 2e” for short) is 8929.14 and 10028.6 and 22099.9.
Consider `Cn1c(=O)n(C)c2cc3c(cc21)nc1c2cccc4cccc(c(=O)n31)c42` [CNS-1, 10,12-dimethyl-10,12-dihydro-7H,11H-benzo[de]imidazo[4',5':5,6]benzimidazo[2,1-a]isoquinoline-7,11-dione], for which the “Number … (normalized to confluence), Fig. 2e” value (listed as 7850915) was 11080.3 and 15413.1 and 17191.
Regarding `CC1=C(C(=O)Nc2ccccn2)C(c2ccc(F)cc2)C2=C(CCCC2=O)N1` (centres unmarked) [CNS-4, 4-(4-fluorophenyl)-2-methyl-5-oxo-N-2-pyridinyl-1,4,5,6,7,8-hexahydro-3-quinolinecarboxamide], the “Number … (normalized to confluence), Fig. 2e” value (listed as 6317572) is 8103.61 and 7551.45 and 17671.3.
As to `COc1cccc(C2C(C(=O)Nc3ccccn3)=C(C)NC3=C2C(=O)CCC3)c1` (centres unmarked) [CNS-5, 4-(3-methoxyphenyl)-2-methyl-5-oxo-N-2-pyridinyl-1,4,5,6,7,8-hexahydro-3-quinolinecarboxamide], the “Number … (normalized to confluence), Fig. 2e” value (listed as 6327117) is 5790.63 and 5091.84 and 10386.8.
`CC1=C(C(=O)Nc2cccc(C)n2)C(c2ccccc2C)C2=C(CCCC2=O)N1` (centres unmarked) [CNS-6, 2-methyl-4-(2-methylphenyl)-N-(6-methyl-2-pyridinyl)-5-oxo-1,4,5,6,7,8-hexahydro-3-quinolinecarboxamide]: under “listed as 6343767”, the “Number … (normalized to confluence), Fig. 2e” value was 6727.54 and 6497.71 and 11400.
Take `Cc1ccc(S(=O)(=O)N(C(F)F)C(C)(C)C)cc1` [CNS-9, N-(tert-butyl)-N-(difluoromethyl)-4-methylbenzenesulfonamide]: the “Number … (normalized to confluence), Fig. 2e” value (listed as 6933498) is 6268.06 and 9513.63 and 13394.2.
In the case of `O=C(c1cc2cc(Br)ccc2oc1=O)N1CCc2ccccc2C1` [CNS-10, 6-bromo-3-(3,4-dihydro-2(1H)-isoquinolinylcarbonyl)-2H-chromen-2-one], the “Number … (normalized to confluence), Fig. 2e” value (listed as 6991358) was 4869.84 and 6105.12 and 9256.09.
Turning to `CC(=O)Nc1cc(-c2nn(C)c(=O)c3ccccc23)ccc1N1CCCCC1` [CNS-19, N-[5-(3-methyl-4-oxo-3,4-dihydro-1-phthalazinyl)-2-(1-piperidinyl)phenyl]acetamide], the “Number … (normalized to confluence), Fig. 2e” value (listed as 7520752) is 9057.73 and 5534.89 and 16287.3.
Take `N#Cc1c2c(n3cc4ccccc4cc13)C(=O)c1ccccc1C2=O` [CNS-20, 5,14-dioxo-5,14-dihydrobenzo[5,6]indolo[1,2-b]isoquinoline-13-carbonitrile]: the “Number … (normalized to confluence), Fig. 2e” value (listed as 7663820) was 40070.2 and 48758.2 and 61897.7.
Take `Cc1ccc(N2C(=O)CC(n3cnc4ccccc43)C2=O)c(C)c1` (centres unmarked) [CNS-22, 3-(1H-benzimidazol-1-yl)-1-(2,4-dimethylphenyl)-2,5-pyrrolidinedione]: the “Number … (normalized to confluence), Fig. 2e” value (listed as 7729218) was 7077.98 and 8551.58 and 10715.2.
With `Cc1cccc(-c2noc(-c3ccccc3C(=O)NCc3cccnc3)n2)c1` [CNS-24, 2-[3-(3-methylphenyl)-1,2,4-oxadiazol-5-yl]-N-(3-pyridinylmethyl)benzamide], the “Number … (normalized to confluence), Fig. 2e” value (listed as 9002758) is 4798.71 and 2194.24 and 9734.93.
With `COc1ccccc1NC(=O)c1cc2c(ccc3ccccc32)oc1=O` [CNS-25, N-(2-methoxyphenyl)-3-oxo-3H-benzo[f]chromene-2-carboxamide], the “Number … (normalized to confluence), Fig. 2e” value (listed as 5876327) was 13235.2 and 9679.79 and 19134.9.
Consider `CO[C@H]1C[C@@H]2CC[C@@H](C)[C@@](O)(O2)C(=O)C(=O)N2CCCC[C@H]2C(=O)O[C@H]([C@H](C)C[C@@H]2CC[C@@H](OCCO)[C@H](OC)C2)CC(=O)[C@H](C)/C=C(\C)[C@@H](O)[C@@H](OC)C(=O)[C@H](C)C[C@H](C)/C=C/C=C/C=C/1C` [FDA-A-7, Everolimus], for which the “Number … (normalized to confluence), Fig. 2e” value is 3758.68 and 4378.2 and 11639.6.
On the same count and under the same terms, under `C[C@]12C=CC(=O)N[C@@H]1CC[C@@H]1[C@@H]2CC[C@]2(C)[C@@H](C(=O)Nc3cc(C(F)(F)F)ccc3C(F)(F)F)CC[C@@H]12` [FDA-A-9, Dutasteride] stands 6197.61 and 4567.33 and 9824.67; under `COc1cc([C@@H]2c3cc4c(cc3[C@@H](O[C@@H]3O[C@@H]5CO[C@@H](c6cccs6)O[C@H]5[C@H](O)[C@H]3O)[C@H]3COC(=O)[C@H]23)OCO4)cc(OC)c1O` [FDA-A-11, Teniposide], 28315 and 23778 and 42223.8.
As to `C/C=C(/C)C(=O)O[C@H]1C(C)=C[C@]23C(=O)[C@@H](C=C(CO)[C@@H](O)[C@]12O)[C@H]1[C@@H](C[C@H]3C)C1(C)C` [FDA-A-13, Ingenol mebutate], the “Number … (normalized to confluence), Fig. 2e” value (listed as ingenol-3-angelate) is 10027.6 and 8367.28 and 13011.7.
In the case of `CC1=NN(c2ccc(C)c(C)c2)C(=O)/C1=N\Nc1cccc(-c2cccc(C(=O)O)c2)c1O` [FDA-A-15, Eltrombopag], the “Number … (normalized to confluence), Fig. 2e” value is 3758.35 and 8279.6 and 8614.09.
As for `Cc1nc2c([nH]1)-c1ccccc1N(C(=O)c1ccc(NC(=O)c3ccccc3-c3ccccc3)cc1)CC2` [FDA-A-16, Conivaptan], the “Number … (normalized to confluence), Fig. 2e” value was 15272 and 13297.5 and 27692.
The same measure, in the same setting: next, `Cc1ccc(-n2nccn2)c(C(=O)N2CCN(c3nc4cc(Cl)ccc4o3)CC[C@H]2C)c1` [FDA-A-20, Suvorexant]: 10609.4 and 12014.6 and 14701.5.
Turning to `CN1C[C@H](C(=O)N[C@]2(C)O[C@@]3(O)[C@@H]4CCCN4C(=O)[C@H](Cc4ccccc4)N3C2=O)C[C@@H]2c3cccc4[nH]cc(c34)C[C@H]21` [FDA-A-23, Dihydroergotamine], the “Number … (normalized to confluence), Fig. 2e” value (listed as dihydroergotamine mesylate) was 6873.71 and 6659.65 and 11949.1.
For `COc1ccc2c(c1)C(=O)N(CCc1ccc(S(=O)(=O)NC(=O)NC3CCCCC3)cc1)C(=O)C2(C)C` [FDA-R-2, Gliquidone], the “Number … (normalized to confluence), Fig. 2e” value is 7523.16 and 6557.51 and 13245.
On the same count and under the same terms, under `CNS(=O)(=O)CCc1ccc2[nH]cc(C3CCN(C)CC3)c2c1` [FDA-R-4, Naratriptan] stands 8578.9 and 6012.3 and 15427; under `CNC(=C[N+](=O)[O-])NCCSCc1csc(CN(C)C)n1` [FDA-R-7, Nizatidine], 6548.12 and 9220.9 and 15017.2.
